Data from ChEMBL document CHEMBL1250522 (Bioorg Med Chem, 2010).

Experiments:
CFPAC-1 = experiment: Cytotoxicity against human CFPAC-1 cells after 72 hrs by SRB assay; type: functional, cell-based; details: CFPAC-1, 72 h
[1] = Cytotoxicity against human wild type LCC-6 cells after 72 hrs by SRB assay; details: LCC-6, 72 h
A2780 = experiment: Cytotoxicity against human A2780 cells after 72 hrs by SRB assay; type: functional, cell-based; details: A2780, 72 h
[2] = Cytotoxicity against human multidrug-resistant LCC-6 cells after 72 hrs by SRB assay; details: LCC-6, 72 h
MCF7 = experiment: Cytotoxicity against human MCF7 cells after 72 hrs by SRB assay; type: functional, cell-based; details: MCF7, 72 h
[3] = Cytotoxicity against human NCI/ADR cells after 72 hrs by SRB assay; details: NCI/ADR-RES

Structure (SMILES) | IC50 (CFPAC-1) [µM] | IC50 [1] [µM] | IC50 (A2780) [µM] | IC50 [2] [µM] | IC50 (MCF7) [µM] | IC50 [3] [µM]
CC(=O)OCc1cccc2c1[C@H](OC(=O)c1ccccc1)[C@H]1C[C@H](OC(=O)[C@H](O)[C@@H](NC(=O)c3ccccc3)c3ccccc3)CN1C2=O | > 100 | 36.3 | 7.8 | > 100 | 39.6 | > 100
CC(=O)OCc1cccc2c1[C@H](OC(=O)c1ccccc1)[C@H]1C[C@H](OC(=O)[C@H](O)[C@@H](NC(=O)c3ccccc3)c3ccccc3)CN1C(=O)C2 | 6.16 | 4.93 | 3.81 | 16.8 | 8.31 | 41.5
O=C1CC/C=C\COc2ccccc2[C@H](NC(=O)c2ccccc2)[C@@H](O)C(=O)O[C@H]2C[C@@H]3[C@@H](OC(=O)c4ccccc4)c4c(cccc4C(=O)N3C2)CO1 | > 100 | > 100 | 14.8 | > 100 | > 100 | > 100
